Data reported in PubChem BioAssay AID2060601 (Molecular Pharmacology Branch, DTP, NCI, 2025).

Tested on: 874868-142-R-J2-PDC complex spheroids, growth % test/control
Test: Anticancer human tumor 874868-142-R-J2-PDC patient-derived head and neck squamous carcinoma cell line growth inhibition [CLK]
Conditions: for IC50: curve of first compound; for viability, T/C: stronger effect = lower value
Summary of the method: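 Multi-cell-type spheroids combined patient-derived tumor cells with HUVEC endothelial cells and human mesenchymal stem cells. Paired agents were dosed in half-log steps down from about clinical Cmax, or from 10 microM where Cmax was unknown.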

[1] = second compound 0.0316 µM, first compound 0.0316 µM
[2] = second compound 0.0316 µM, first compound 0.1 µM
[3] = second compound 0.0316 µM, first compound 0.316 µM
[4] = second compound 0.0316 µM, first compound 1 µM
[5] = second compound 0.1 µM, first compound 0.0316 µM
[6] = second compound 0.1 µM, first compound 0.1 µM
[7] = second compound 0.1 µM, first compound 0.316 µM
[8] = second compound 0.1 µM, first compound 1 µM
[9] = second compound 0.316 µM, first compound 0.0316 µM
[10] = second compound 0.316 µM, first compound 0.1 µM
[11] = second compound 0.316 µM, first compound 0.316 µM
[12] = second compound 0.316 µM, first compound 1 µM
[13] = second compound 1 µM, first compound 0.0316 µM
[14] = second compound 1 µM, first compound 0.1 µM
[15] = second compound 1 µM, first compound 0.316 µM
[16] = second compound 1 µM, first compound 1 µM
[17] = second compound 3.16 µM, first compound 0.0316 µM
[18] = second compound 3.16 µM, first compound 0.1 µM
[19] = second compound 3.16 µM, first compound 0.316 µM
[20] = second compound 3.16 µM, first compound 1 µM
[21] = second compound 10 µM, first compound 0.0316 µM
[22] = second compound 10 µM, first compound 0.1 µM
[23] = second compound 10 µM, first compound 0.316 µM
[24] = second compound 10 µM, first compound 1 µM
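Note: spheroids exposed to the compounds for 7 days.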
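Throughout, for viability, T/C: 100% = DMSO vehicle control viability.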

C=CC(=O)Nc1cc(Nc2nccc(-c3cn(C)c4ccccc34)n2)c(OC)cc1N(C)CCN(C)C + CN1CCN(c2cc(C(=O)Nc3cc4cc(-c5cnn(C)c5)ccc4cn3)ccn2)CC1
IC50 (second compound 0.0316 µM): 51.9 nM | IC50 (second compound 0.1 µM): 21.9 nM | IC50 (second compound 0.316 µM): < 0.949 nM | IC50 (second compound 1 µM): < 0.949 nM | IC50 (second compound 3.16 µM): < 0.949 nM | IC50 (second compound 10 µM): < 0.949 nM | viability, T/C (second compound 0.0316 µM, first compound 0.000949 µM): 84.1% | viability, T/C (second compound 0.0316 µM, first compound 0.003 µM): 90.5% | viability, T/C (second compound 0.0316 µM, first compound 0.00949 µM): 80.3% | viability, T/C (second compound 0.0316 µM, first compound 0.03 µM): 61.9% | viability, T/C (second compound 0.0316 µM, first compound 0.0949 µM): 37.1% | viability, T/C (second compound 0.0316 µM, first compound 0.3 µM): 27.3% | viability, T/C (second compound 0.1 µM, first compound 0.000949 µM): 76% | viability, T/C (second compound 0.1 µM, first compound 0.003 µM): 70.6% | viability, T/C (second compound 0.1 µM, first compound 0.00949 µM): 59.1% | viability, T/C (second compound 0.1 µM, first compound 0.03 µM): 49.6% | viability, T/C (second compound 0.1 µM, first compound 0.0949 µM): 26.8% | viability, T/C (second compound 0.1 µM, first compound 0.3 µM): 22% | viability, T/C (second compound 0.316 µM, first compound 0.000949 µM): 19.2% | viability, T/C (second compound 0.316 µM, first compound 0.003 µM): 16.2% | viability, T/C (second compound 0.316 µM, first compound 0.00949 µM): 19.7% | viability, T/C (second compound 0.316 µM, first compound 0.03 µM): 9.31% | viability, T/C (second compound 0.316 µM, first compound 0.0949 µM): 15.2% | viability, T/C (second compound 0.316 µM, first compound 0.3 µM): 7.92% | viability, T/C (second compound 1 µM, first compound 0.000949 µM): 0.41% | viability, T/C (second compound 1 µM, first compound 0.003 µM): 0.88% | viability, T/C (second compound 1 µM, first compound 0.00949 µM): 1.96% | viability, T/C (second compound 1 µM, first compound 0.03 µM): 0.37% | viability, T/C (second compound 1 µM, first compound 0.0949 µM): 0.71% | viability, T/C (second compound 1 µM, first compound 0.3 µM): 0.79% | viability, T/C (second compound 3.16 µM, first compound 0.000949 µM): 0.27% | viability, T/C (second compound 3.16 µM, first compound 0.003 µM): 0.34% | viability, T/C (second compound 3.16 µM, first compound 0.00949 µM): 0.26% | viability, T/C (second compound 3.16 µM, first compound 0.03 µM): 0.66% | viability, T/C (second compound 3.16 µM, first compound 0.0949 µM): 4.28% | viability, T/C (second compound 3.16 µM, first compound 0.3 µM): 0.48% | viability, T/C (second compound 10 µM, first compound 0.000949 µM): 7.4% | viability, T/C (second compound 10 µM, first compound 0.003 µM): 0.25% | viability, T/C (second compound 10 µM, first compound 0.00949 µM): 3.1% | viability, T/C (second compound 10 µM, first compound 0.03 µM): 0.21% | viability, T/C (second compound 10 µM, first compound 0.0949 µM): 1.3% | viability, T/C (second compound 10 µM, first compound 0.3 µM): 2.16%

CC(Nc1ccc2c(c1)OCCn1cc(N3C(=O)OCC3C(F)F)nc1-2)C(N)=O (stereo unspecified) + CN1CCN(c2cc(C(=O)Nc3cc4cc(-c5cnn(C)c5)ccc4cn3)ccn2)CC1
IC50 (second compound 0.0316 µM): 89.4 nM | IC50 (second compound 0.1 µM): 75.5 nM | IC50 (second compound 0.316 µM): < 31.6 nM | IC50 (second compound 1 µM): < 31.6 nM | IC50 (second compound 3.16 µM): < 31.6 nM | IC50 (second compound 10 µM): < 31.6 nM | viability, T/C [1]: 69.5% | viability, T/C [2]: 46.7% | viability, T/C [3]: 33.7% | viability, T/C [4]: 22.6% | viability, T/C (second compound 0.0316 µM, first compound 3.16 µM): 13.8% | viability, T/C (second compound 0.0316 µM, first compound 10 µM): 12.3% | viability, T/C [5]: 78.7% | viability, T/C [6]: 36.1% | viability, T/C [7]: 30.2% | viability, T/C [8]: 20.7% | viability, T/C (second compound 0.1 µM, first compound 3.16 µM): 12.8% | viability, T/C (second compound 0.1 µM, first compound 10 µM): 12% | viability, T/C [9]: 19.3% | viability, T/C [10]: 15.2% | viability, T/C [11]: 17.8% | viability, T/C [12]: 8.67% | viability, T/C (second compound 0.316 µM, first compound 3.16 µM): 12.4% | viability, T/C (second compound 0.316 µM, first compound 10 µM): 8.37% | viability, T/C [13]: 0.31% | viability, T/C [14]: 1.8% | viability, T/C [15]: 1.32% | viability, T/C [16]: 0.15% | viability, T/C (second compound 1 µM, first compound 3.16 µM): 1.54% | viability, T/C (second compound 1 µM, first compound 10 µM): 0.14% | viability, T/C [17]: 0.28% | viability, T/C [18]: 3.06% | viability, T/C [19]: 0.36% | viability, T/C [20]: 0.11% | viability, T/C (second compound 3.16 µM, first compound 3.16 µM): 0.47% | viability, T/C (second compound 3.16 µM, first compound 10 µM): 0.23% | viability, T/C [21]: 0.13% | viability, T/C [22]: 0.11% | viability, T/C [23]: 1.27% | viability, T/C [24]: 0.14% | viability, T/C (second compound 10 µM, first compound 3.16 µM): 0.18% | viability, T/C (second compound 10 µM, first compound 10 µM): 0.2%

CCN1CCN(Cc2ccc(Nc3ncc(F)c(-c4cc(F)c5nc(C)n(C(C)C)c5c4)n3)nc2)CC1 + CN1CCN(c2cc(C(=O)Nc3cc4cc(-c5cnn(C)c5)ccc4cn3)ccn2)CC1
IC50 (second compound 0.0316 µM): > 1000 nM | IC50 (second compound 0.1 µM): > 1000 nM | IC50 (second compound 0.316 µM): < 3.16 nM | IC50 (second compound 1 µM): < 3.16 nM | IC50 (second compound 3.16 µM): < 3.16 nM | IC50 (second compound 10 µM): < 3.16 nM | viability, T/C (second compound 0.0316 µM, first compound 0.00316 µM): 82.8% | viability, T/C (second compound 0.0316 µM, first compound 0.01 µM): 65% | viability, T/C [1]: 82.2% | viability, T/C [2]: 89% | viability, T/C [3]: 72% | viability, T/C [4]: 110% | viability, T/C (second compound 0.1 µM, first compound 0.00316 µM): 85.4% | viability, T/C (second compound 0.1 µM, first compound 0.01 µM): 66.9% | viability, T/C [5]: 54.9% | viability, T/C [6]: 66.8% | viability, T/C [7]: 62.5% | viability, T/C [8]: 91% | viability, T/C (second compound 0.316 µM, first compound 0.00316 µM): 22.7% | viability, T/C (second compound 0.316 µM, first compound 0.01 µM): 22.2% | viability, T/C [9]: 25.9% | viability, T/C [10]: 23.1% | viability, T/C [11]: 43.9% | viability, T/C [12]: 49.6% | viability, T/C (second compound 1 µM, first compound 0.00316 µM): 0.58% | viability, T/C (second compound 1 µM, first compound 0.01 µM): 0.34% | viability, T/C [13]: 0.43% | viability, T/C [14]: 0.43% | viability, T/C [15]: 0.48% | viability, T/C [16]: 0.58% | viability, T/C (second compound 3.16 µM, first compound 0.00316 µM): 0.3% | viability, T/C (second compound 3.16 µM, first compound 0.01 µM): 2.83% | viability, T/C [17]: 0.23% | viability, T/C [18]: 0.83% | viability, T/C [19]: 0.56% | viability, T/C [20]: 1% | viability, T/C (second compound 10 µM, first compound 0.00316 µM): 0.7% | viability, T/C (second compound 10 µM, first compound 0.01 µM): 2.35% | viability, T/C [21]: 0.16% | viability, T/C [22]: 0.16% | viability, T/C [23]: 0.18% | viability, T/C [24]: 4.41%
